Here are results for one compound from publication PMC5907308, “21st Brazilian Diabetes Society Congress” (Diabetology & Metabolic Syndrome, 2018).

This test concerns patient with DM1 and suspected hyporeninemic hypoaldosteronism. The test can be described thus: Case report: fludrocortisone therapeutic test. Conditions: fludrocortisone 0.2 mg/day. In kind it is in vivo, human. The protocol:
Case presentation: A person, diagnosed with type 1 diabetes mellitus (DM1) for 12 years, presented progressive of walking difficulties 5 years ago, associated with dizziness, weakness, and tachycardia at rest with hypotension. […] Neuropathy Disability Score (NDS) was carried out, presenting 10 out of 10 points, classified as severe impairment. Because of an extremely significant clinical condition, with no evidence of microvascular compromise, hyporeninemic hypoaldosteronism (HH) was investigated. […] Subsequently, the patient was exposed to the exogenous ACTH test, with the administration of ACTH 250mcg intravenous and dosages of serum cortisol and aldosterone at times 0‘, 30‘, 60‘. There was an elevation of serum cortisol to levels above the limit of normality (18 mcg/dL), discarding primary adrenal insufficiency, and aldosterone levels at the lower limit of normal (attached tables). Even tests without confirmation, the use of fludrocortisone 0.2 mg/day was started as a therapeutic test.

Regarding `C[C@]12CCC(=O)C=C1CC[C@H]1[C@@H]3CC[C@](O)(C(=O)CO)[C@@]3(C)C[C@H](O)[C@@]12F` [fludrocortisone], the clinical course result was “improvement of the blood pressure (BP) and dizziness”.
